# In ChEMBL document CHEMBL6103592, “Discovery of novel thiazole-pleuromutilin derivatives with potent antibacterial activity” (Eur J Med Chem, 2025):
# System: Staphylococcus aureus
# Test: Antibacterial activity against methicillin-resistant Staphylococcus aureus ATCC 43300 assessed as inhibition of visible bacterial growth incubated for 24 hrs by CLSI based broth microdilution method
# Type: functional
row,SMILES,MIC [µg/mL]
1,C=C[C@]1(C)C[C@@H](OC(=O)CSc2nc(OC(=O)c3ccc(Cl)cc3Cl)cs2)[C@]2(C)[C@H](C)CC[C@]3(CCC(=O)[C@H]32)[C@@H](C)[C@@H]1O,0.5
2,C=C[C@]1(C)C[C@@H](OC(=O)CSc2nc(OC(=O)c3ccccc3)cs2)[C@]2(C)[C@H](C)CC[C@]3(CCC(=O)[C@H]32)[C@@H](C)[C@@H]1O,1
3,C=C[C@]1(C)C[C@@H](OC(=O)CSc2nc(OC(=O)c3ccccc3C)cs2)[C@]2(C)[C@H](C)CC[C@]3(CCC(=O)[C@H]32)[C@@H](C)[C@@H]1O,1
4,C=C[C@]1(C)C[C@@H](OC(=O)CSc2nc(OC(=O)c3ccc(Cl)cc3)cs2)[C@]2(C)[C@H](C)CC[C@]3(CCC(=O)[C@H]32)[C@@H](C)[C@@H]1O,0.5
5,C=C[C@]1(C)C[C@@H](OC(=O)CSc2nc(OC(=O)c3ccc(C)cc3)cs2)[C@]2(C)[C@H](C)CC[C@]3(CCC(=O)[C@H]32)[C@@H](C)[C@@H]1O,1
6,C=C[C@]1(C)C[C@@H](OC(=O)CSc2nc(OC(=O)c3cccc(C)c3)cs2)[C@]2(C)[C@H](C)CC[C@]3(CCC(=O)[C@H]32)[C@@H](C)[C@@H]1O,0.5

# System: Staphylococcus aureus
# Test: Antibacterial activity against Staphylococcus aureus ATCC 25923 assessed as inhibition of visible bacterial growth incubated for 24 hrs by CLSI based broth microdilution method
# Type: functional
row,SMILES,MIC [µg/mL]
1,C=C[C@]1(C)C[C@@H](OC(=O)CSc2nc(OC(=O)c3ccc(Cl)cc3Cl)cs2)[C@]2(C)[C@H](C)CC[C@]3(CCC(=O)[C@H]32)[C@@H](C)[C@@H]1O,2
2,C=C[C@]1(C)C[C@@H](OC(=O)CSc2nc(OC(=O)c3ccccc3)cs2)[C@]2(C)[C@H](C)CC[C@]3(CCC(=O)[C@H]32)[C@@H](C)[C@@H]1O,0.5
3,C=C[C@]1(C)C[C@@H](OC(=O)CSc2nc(OC(=O)c3ccccc3C)cs2)[C@]2(C)[C@H](C)CC[C@]3(CCC(=O)[C@H]32)[C@@H](C)[C@@H]1O,2
4,C=C[C@]1(C)C[C@@H](OC(=O)CSc2nc(OC(=O)c3ccc(Cl)cc3)cs2)[C@]2(C)[C@H](C)CC[C@]3(CCC(=O)[C@H]32)[C@@H](C)[C@@H]1O,0.5
5,C=C[C@]1(C)C[C@@H](OC(=O)CSc2nc(OC(=O)c3ccc(C)cc3)cs2)[C@]2(C)[C@H](C)CC[C@]3(CCC(=O)[C@H]32)[C@@H](C)[C@@H]1O,0.25
6,C=C[C@]1(C)C[C@@H](OC(=O)CSc2nc(OC(=O)c3cccc(C)c3)cs2)[C@]2(C)[C@H](C)CC[C@]3(CCC(=O)[C@H]32)[C@@H](C)[C@@H]1O,0.5

# System: Enterococcus faecalis
# Test: Antibacterial activity against Enterococcus faecalis assessed as inhibition of visible bacterial growth incubated for 24 hrs by CLSI based broth microdilution method
# Type: functional
row,SMILES,MIC [µg/mL]
1,C=C[C@]1(C)C[C@@H](OC(=O)CSc2nc(OC(=O)c3ccc(Cl)cc3Cl)cs2)[C@]2(C)[C@H](C)CC[C@]3(CCC(=O)[C@H]32)[C@@H](C)[C@@H]1O,> 32
2,C=C[C@]1(C)C[C@@H](OC(=O)CSc2nc(OC(=O)c3ccccc3)cs2)[C@]2(C)[C@H](C)CC[C@]3(CCC(=O)[C@H]32)[C@@H](C)[C@@H]1O,> 32
3,C=C[C@]1(C)C[C@@H](OC(=O)CSc2nc(OC(=O)c3ccccc3C)cs2)[C@]2(C)[C@H](C)CC[C@]3(CCC(=O)[C@H]32)[C@@H](C)[C@@H]1O,> 32
4,C=C[C@]1(C)C[C@@H](OC(=O)CSc2nc(OC(=O)c3ccc(Cl)cc3)cs2)[C@]2(C)[C@H](C)CC[C@]3(CCC(=O)[C@H]32)[C@@H](C)[C@@H]1O,> 32
5,C=C[C@]1(C)C[C@@H](OC(=O)CSc2nc(OC(=O)c3ccc(C)cc3)cs2)[C@]2(C)[C@H](C)CC[C@]3(CCC(=O)[C@H]32)[C@@H](C)[C@@H]1O,> 32
6,C=C[C@]1(C)C[C@@H](OC(=O)CSc2nc(OC(=O)c3cccc(C)c3)cs2)[C@]2(C)[C@H](C)CC[C@]3(CCC(=O)[C@H]32)[C@@H](C)[C@@H]1O,> 32

# System: Escherichia coli
# Test: Antibacterial activity against Escherichia coli ATCC 25922 assessed as inhibition of visible bacterial growth incubated for 24 hrs by CLSI based broth microdilution method
# Type: functional
row,SMILES,MIC [µg/mL]
1,C=C[C@]1(C)C[C@@H](OC(=O)CSc2nc(OC(=O)c3ccc(Cl)cc3Cl)cs2)[C@]2(C)[C@H](C)CC[C@]3(CCC(=O)[C@H]32)[C@@H](C)[C@@H]1O,> 32
2,C=C[C@]1(C)C[C@@H](OC(=O)CSc2nc(OC(=O)c3ccccc3)cs2)[C@]2(C)[C@H](C)CC[C@]3(CCC(=O)[C@H]32)[C@@H](C)[C@@H]1O,> 32
3,C=C[C@]1(C)C[C@@H](OC(=O)CSc2nc(OC(=O)c3ccccc3C)cs2)[C@]2(C)[C@H](C)CC[C@]3(CCC(=O)[C@H]32)[C@@H](C)[C@@H]1O,> 32
4,C=C[C@]1(C)C[C@@H](OC(=O)CSc2nc(OC(=O)c3ccc(Cl)cc3)cs2)[C@]2(C)[C@H](C)CC[C@]3(CCC(=O)[C@H]32)[C@@H](C)[C@@H]1O,> 32
5,C=C[C@]1(C)C[C@@H](OC(=O)CSc2nc(OC(=O)c3ccc(C)cc3)cs2)[C@]2(C)[C@H](C)CC[C@]3(CCC(=O)[C@H]32)[C@@H](C)[C@@H]1O,> 32
6,C=C[C@]1(C)C[C@@H](OC(=O)CSc2nc(OC(=O)c3cccc(C)c3)cs2)[C@]2(C)[C@H](C)CC[C@]3(CCC(=O)[C@H]32)[C@@H](C)[C@@H]1O,> 32

# System: Streptococcus agalactiae
# Test: Antibacterial activity against Streptococcus agalactiae assessed as inhibition of visible bacterial growth incubated for 24 hrs by CLSI based broth microdilution method
# Type: functional
row,SMILES,MIC [µg/mL]
1,C=C[C@]1(C)C[C@@H](OC(=O)CSc2nc(OC(=O)c3ccc(Cl)cc3Cl)cs2)[C@]2(C)[C@H](C)CC[C@]3(CCC(=O)[C@H]32)[C@@H](C)[C@@H]1O,0.063
2,C=C[C@]1(C)C[C@@H](OC(=O)CSc2nc(OC(=O)c3ccccc3)cs2)[C@]2(C)[C@H](C)CC[C@]3(CCC(=O)[C@H]32)[C@@H](C)[C@@H]1O,0.063
3,C=C[C@]1(C)C[C@@H](OC(=O)CSc2nc(OC(=O)c3ccccc3C)cs2)[C@]2(C)[C@H](C)CC[C@]3(CCC(=O)[C@H]32)[C@@H](C)[C@@H]1O,0.063
4,C=C[C@]1(C)C[C@@H](OC(=O)CSc2nc(OC(=O)c3ccc(Cl)cc3)cs2)[C@]2(C)[C@H](C)CC[C@]3(CCC(=O)[C@H]32)[C@@H](C)[C@@H]1O,0.063
5,C=C[C@]1(C)C[C@@H](OC(=O)CSc2nc(OC(=O)c3ccc(C)cc3)cs2)[C@]2(C)[C@H](C)CC[C@]3(CCC(=O)[C@H]32)[C@@H](C)[C@@H]1O,0.063
6,C=C[C@]1(C)C[C@@H](OC(=O)CSc2nc(OC(=O)c3cccc(C)c3)cs2)[C@]2(C)[C@H](C)CC[C@]3(CCC(=O)[C@H]32)[C@@H](C)[C@@H]1O,0.063

# System: Mycoplasma
# Test: Antibacterial activity against Mycoplasma F3 assessed as inhibition of visible bacterial growth incubated for 24 hrs by CLSI based broth microdilution method
# Type: functional
row,SMILES,MIC [µg/mL]
1,C=C[C@]1(C)C[C@@H](OC(=O)CSc2nc(OC(=O)c3ccc(Cl)cc3Cl)cs2)[C@]2(C)[C@H](C)CC[C@]3(CCC(=O)[C@H]32)[C@@H](C)[C@@H]1O,0.5
2,C=C[C@]1(C)C[C@@H](OC(=O)CSc2nc(OC(=O)c3ccccc3)cs2)[C@]2(C)[C@H](C)CC[C@]3(CCC(=O)[C@H]32)[C@@H](C)[C@@H]1O,0.25
3,C=C[C@]1(C)C[C@@H](OC(=O)CSc2nc(OC(=O)c3ccccc3C)cs2)[C@]2(C)[C@H](C)CC[C@]3(CCC(=O)[C@H]32)[C@@H](C)[C@@H]1O,1
4,C=C[C@]1(C)C[C@@H](OC(=O)CSc2nc(OC(=O)c3ccc(Cl)cc3)cs2)[C@]2(C)[C@H](C)CC[C@]3(CCC(=O)[C@H]32)[C@@H](C)[C@@H]1O,0.25
5,C=C[C@]1(C)C[C@@H](OC(=O)CSc2nc(OC(=O)c3ccc(C)cc3)cs2)[C@]2(C)[C@H](C)CC[C@]3(CCC(=O)[C@H]32)[C@@H](C)[C@@H]1O,0.5
6,C=C[C@]1(C)C[C@@H](OC(=O)CSc2nc(OC(=O)c3cccc(C)c3)cs2)[C@]2(C)[C@H](C)CC[C@]3(CCC(=O)[C@H]32)[C@@H](C)[C@@H]1O,0.5
